{"source": "paper PMC12892976", "about": "“Alkylation-based optimization of antifungal FPPS inhibitors yields a potent, broad-spectrum lipophilic zoledronate derivative” (mBio, 2025)", "key": {"Saccharomyces cerevisiae [1]": {"system": "Saccharomyces cerevisiae", "assay": "MIC/MFC broth microdilution (CLSI)", "assay_type": "cell-based", "settings": "Saccharomyces cerevisiae S288c", "description": "(§1) Antifungal susceptibility was determined by broth microdilution according to the CLSI guidelines described in M27-Ed4 ([16]). […] MFC was determined by back-plating drug-treated cultures from MIC broths onto SDA plates. The MFC was defined as the lowest concentration from which no colonies could be cultured."}, "Cryptococcus neoformans [2]": {"system": "Cryptococcus neoformans", "assay": "checkerboard drug interaction (FICI, MICc)", "assay_type": "cell-based", "description": "(§2) Drug interactions between antifungals and FPPS inhibitors were investigated using a simplified checkerboard diagonal screening method ([45]). […] FICIs were determined according to the Loewe additivity model ([17])."}, "Aspergillus felis": {"system": "Aspergillus felis", "assay": "MIC broth microdilution (CLSI)", "assay_type": "cell-based", "settings": "Aspergillus felis IHE87256683D6", "description": "(§3) Antifungal susceptibility was determined by broth microdilution according to the CLSI guidelines described in M27-Ed4 ([16])."}, "[3]": {"system": "Cryptococcus bacillisporus", "assay": "MIC broth microdilution (CLSI)", "assay_type": "cell-based", "settings": "Cryptococcus bacillisporus NIH179", "description": "as §3"}, "Aspergillus flavus [4]": {"system": "Aspergillus flavus", "assay": "checkerboard drug interaction (FICI, MICc)", "assay_type": "cell-based", "description": "as §2"}, "Candida albicans [5]": {"system": "Candida albicans", "assay": "checkerboard drug interaction (FICI, MICc)", "assay_type": "cell-based", "description": "as §2"}, "Candida albicans [6]": {"system": "Candida albicans", "assay": "MIC/MFC broth microdilution (CLSI)", "assay_type": "cell-based", "settings": "Candida albicans SC5314", "description": "as §1"}, "Aspergillus fumigatus [7]": {"system": "Aspergillus fumigatus", "assay": "MIC/MFC broth microdilution (CLSI)", "settings": "ATCC204305", "description": "as §1"}, "[8]": {"system": "Cryptococcus deuterogattii", "assay": "checkerboard drug interaction (FICI, MICc)", "assay_type": "cell-based", "description": "as §2"}, "Candida glabrata [9]": {"system": "Candida glabrata", "assay": "MIC/MFC broth microdilution (CLSI)", "settings": "for MIC / MEC: Candida glabrata CBS138 (ATCC 2001)", "description": "as §1"}, "Aspergillus flavus [10]": {"system": "Aspergillus flavus", "assay": "MIC/MFC broth microdilution (CLSI)", "settings": "ATCC204304", "description": "as §1"}, "Saccharomyces cerevisiae [11]": {"system": "Saccharomyces cerevisiae", "assay": "checkerboard drug interaction (FICI, MICc)", "assay_type": "cell-based", "description": "as §2"}, "Trichophyton rubrum [12]": {"system": "Trichophyton rubrum", "assay": "checkerboard drug interaction (FICI, MICc)", "assay_type": "cell-based", "description": "as §2"}, "Candida glabrata [13]": {"system": "Candida glabrata", "assay": "checkerboard drug interaction (FICI, MICc)", "assay_type": "cell-based", "description": "as §2"}, "Aspergillus terreus": {"system": "Aspergillus terreus", "assay": "MIC broth microdilution (CLSI)", "assay_type": "cell-based", "settings": "Aspergillus terreus 75-16-089-2500", "description": "as §3"}, "Aspergillus fumigatus [14]": {"system": "Aspergillus fumigatus", "assay": "checkerboard drug interaction (FICI, MICc)", "assay_type": "cell-based", "description": "as §2"}, "Trichophyton rubrum [15]": {"system": "Trichophyton rubrum", "assay": "MIC/MFC broth microdilution (CLSI)", "settings": "for MIC / MEC: Trichophyton rubrum R-218", "description": "as §1"}, "[16]": {"system": "Cryptococcus deuterogattii", "assay": "MIC/MFC broth microdilution (CLSI)", "settings": "for MIC / MEC: Cryptococcus deuterogattii R265", "description": "as §1"}, "Cryptococcus neoformans [17]": {"system": "Cryptococcus neoformans", "assay": "MIC/MFC broth microdilution (CLSI)", "settings": "for MIC / MEC: Cryptococcus neoformans H99", "description": "as §1"}, "eight fungal species": {"system": "eight fungal species", "assay": "MIC/MFC summary across the eight fungal species of Table 1", "assay_type": "cell-based", "procedure": "The antifungal activity of these compounds was evaluated according to CLSI guidelines ([16])."}}, "data": [{"smiles": "CC[C@H](C)C[C@H](C)CCCCCCCCC(=O)N[C@H]1C[C@@H](O)[C@@H](NCCN)NC(=O)[C@@H]2[C@@H](O)CCN2C(=O)[C@H]([C@H](O)CCN)NC(=O)[C@H]([C@H](O)[C@@H](O)c2ccc(O)cc2)NC(=O)[C@@H]2C[C@@H](O)CN2C(=O)[C@H]([C@@H](C)O)NC1=O", "note": "[CAS, caspofungin]", "values": [{"measurement": "MIC / MEC", "setting": "Saccharomyces cerevisiae [1]", "value": 0.5, "unit": "µg/mL"}, {"measurement": "antifungal MICc", "setting": "Cryptococcus neoformans [2]; in combination with 10-ZOL", "value": 2}, {"measurement": "antifungal MICc", "setting": "Cryptococcus neoformans [2]; in combination with ZOL", "value": 16}, {"measurement": "MIC / MEC", "setting": "Aspergillus felis", "value": 0.25, "unit": "µg/mL"}, {"measurement": "MIC / MEC", "setting": "[3]", "value": 8, "unit": "µg/mL"}, {"measurement": "antifungal MICc", "setting": "Aspergillus flavus [4]; in combination with 10-ZOL", "value": 2}, {"measurement": "antifungal MICc", "setting": "Aspergillus flavus [4]; in combination with ZOL", "value": 4}, {"measurement": "antifungal MICc", "setting": "Candida albicans [5]; in combination with 10-ZOL", "value": 0.063}, {"measurement": "antifungal MICc", "setting": "Candida albicans [5]; in combination with ZOL", "value": 0.25}, {"measurement": "MIC / MEC", "setting": "Candida albicans [6]", "value": 0.13, "unit": "µg/mL"}, {"measurement": "MIC / MEC", "setting": "Aspergillus fumigatus [7]", "value": 16, "unit": "µg/mL"}, {"measurement": "antifungal MICc", "setting": "[8]; in combination with 10-ZOL", "value": 4}, {"measurement": "antifungal MICc", "setting": "[8]; in combination with ZOL", "value": 16}, {"measurement": "MIC / MEC", "setting": "Candida glabrata [9]", "value": 0.13, "unit": "µg/mL"}, {"measurement": "MIC / MEC", "setting": "Aspergillus flavus [10]", "value": 8, "unit": "µg/mL"}, {"measurement": "antifungal MICc", "setting": "Saccharomyces cerevisiae [11]; in combination with 10-ZOL", "value": 0.125}, {"measurement": "antifungal MICc", "setting": "Saccharomyces cerevisiae [11]; in combination with ZOL", "value": 0.5}, {"measurement": "antifungal MICc", "setting": "Trichophyton rubrum [12]; in combination with 10-ZOL", "value": 0.25}, {"measurement": "antifungal MICc", "setting": "Trichophyton rubrum [12]; in combination with ZOL", "value": 0.063}, {"measurement": "antifungal MICc", "setting": "Candida glabrata [13]; in combination with 10-ZOL", "value": 0.125}, {"measurement": "antifungal MICc", "setting": "Candida glabrata [13]; in combination with ZOL", "value": 0.25}, {"measurement": "MIC / MEC", "setting": "Aspergillus terreus", "value": 2, "unit": "µg/mL"}, {"measurement": "antifungal MICc", "setting": "Aspergillus fumigatus [14]; in combination with 10-ZOL", "value": 8}, {"measurement": "antifungal MICc", "setting": "Aspergillus fumigatus [14]; in combination with ZOL", "value": 8}, {"measurement": "MIC / MEC", "setting": "Trichophyton rubrum [15]", "value": 0.25, "unit": "µg/mL"}, {"measurement": "MIC / MEC", "setting": "[16]", "value": 16, "unit": "µg/mL"}, {"measurement": "MIC / MEC", "setting": "Cryptococcus neoformans [17]", "value": 8, "unit": "µg/mL"}]}, {"smiles": "CC(=O)N1CCN(c2ccc(OCC3COC(Cn4ccnc4)(c4ccc(Cl)cc4Cl)O3)cc2)CC1", "note": "(stereo not drawn) [KET, ketoconazole]", "values": [{"measurement": "MFC", "setting": "Saccharomyces cerevisiae [1]", "value": 8, "unit": "µg/mL"}, {"measurement": "MIC", "setting": "Saccharomyces cerevisiae [1]", "value": 1, "unit": "µg/mL"}, {"measurement": "MIC / MEC", "setting": "Saccharomyces cerevisiae [1]", "value": 1, "unit": "µg/mL"}, {"measurement": "antifungal MICc", "setting": "Cryptococcus neoformans [2]; in combination with 10-ZOL", "value": 0.063}, {"measurement": "antifungal MICc", "setting": "Cryptococcus neoformans [2]; in combination with ZOL", "value": 0.125}, {"measurement": "MIC / MEC", "setting": "Aspergillus felis", "value": 16, "unit": "µg/mL"}, {"measurement": "MFC", "setting": "eight fungal species; across eight species, read-out: Geometric mean MFC", "value": 6.7, "unit": "µg/mL"}, {"measurement": "MIC", "setting": "eight fungal species; read-out: Geometric mean MIC", "value": 1.3, "unit": "µg/mL"}, {"measurement": "MIC / MEC", "setting": "[3]", "value": 0.25, "unit": "µg/mL"}, {"measurement": "antifungal MICc", "setting": "Aspergillus flavus [4]; in combination with 10-ZOL", "value": 1}, {"measurement": "antifungal MICc", "setting": "Aspergillus flavus [4]; in combination with ZOL", "value": 2}, {"measurement": "antifungal MICc", "setting": "Candida albicans [5]; in combination with 10-ZOL", "value": 0.125}, {"measurement": "antifungal MICc", "setting": "Candida albicans [5]; in combination with ZOL", "value": 0.25}, {"measurement": "MFC", "setting": "Candida albicans [6]", "value": 0.25, "unit": "µg/mL"}, {"measurement": "MIC", "setting": "Candida albicans [6]", "value": 0.0625, "unit": "µg/mL"}, {"measurement": "MIC / MEC", "setting": "Candida albicans [6]", "value": 0.06, "unit": "µg/mL"}, {"measurement": "MFC", "setting": "Aspergillus fumigatus [7]", "value": 16, "unit": "µg/mL"}, {"measurement": "MIC", "setting": "Aspergillus fumigatus [7]", "value": 4, "unit": "µg/mL"}, {"measurement": "MIC / MEC", "setting": "Aspergillus fumigatus [7]", "value": 4, "unit": "µg/mL"}, {"measurement": "antifungal MICc", "setting": "[8]; in combination with 10-ZOL", "value": 0.063}, {"measurement": "antifungal MICc", "setting": "[8]; in combination with ZOL", "value": 0.5}, {"measurement": "MIC / MEC", "setting": "Candida glabrata [9]", "value": 0.5, "unit": "µg/mL"}, {"measurement": "MFC", "setting": "Candida glabrata [9]; Nakaseomyces glabratus, CBS138", "value": 4, "unit": "µg/mL"}, {"measurement": "MIC", "setting": "Candida glabrata [9]; Nakaseomyces glabratus, CBS138", "value": 0.5, "unit": "µg/mL"}, {"measurement": "MFC", "setting": "Aspergillus flavus [10]", "value": 8, "unit": "µg/mL"}, {"measurement": "MIC", "setting": "Aspergillus flavus [10]", "value": 2, "unit": "µg/mL"}, {"measurement": "MIC / MEC", "setting": "Aspergillus flavus [10]", "value": 2, "unit": "µg/mL"}, {"measurement": "antifungal MICc", "setting": "Saccharomyces cerevisiae [11]; in combination with 10-ZOL", "value": 0.25}, {"measurement": "antifungal MICc", "setting": "Saccharomyces cerevisiae [11]; in combination with ZOL", "value": 0.25}, {"measurement": "antifungal MICc", "setting": "Trichophyton rubrum [12]; in combination with 10-ZOL", "value": 1}, {"measurement": "antifungal MICc", "setting": "Trichophyton rubrum [12]; in combination with ZOL", "value": 1}, {"measurement": "antifungal MICc", "setting": "Candida glabrata [13]; in combination with 10-ZOL", "value": 0.016}, {"measurement": "antifungal MICc", "setting": "Candida glabrata [13]; in combination with ZOL", "value": 0.031}, {"measurement": "MIC / MEC", "setting": "Aspergillus terreus", "value": 2, "unit": "µg/mL"}, {"measurement": "antifungal MICc", "setting": "Aspergillus fumigatus [14]; in combination with 10-ZOL", "value": 0.25}, {"measurement": "antifungal MICc", "setting": "Aspergillus fumigatus [14]; in combination with ZOL", "value": 2}, {"measurement": "MFC", "setting": "Trichophyton rubrum [15]; Trichophyton rubrum", "value": "> 16", "unit": "µg/mL"}, {"measurement": "MIC", "setting": "Trichophyton rubrum [15]; Trichophyton rubrum", "value": 4, "unit": "µg/mL"}, {"measurement": "MIC / MEC", "setting": "Trichophyton rubrum [15]", "value": 4, "unit": "µg/mL"}, {"measurement": "MFC", "setting": "[16]; Cryptococcus deuterogattii", "value": 8, "unit": "µg/mL"}, {"measurement": "MIC", "setting": "[16]; Cryptococcus deuterogattii", "value": 4, "unit": "µg/mL"}, {"measurement": "MIC / MEC", "setting": "[16]", "value": 4, "unit": "µg/mL"}, {"measurement": "MFC", "setting": "Cryptococcus neoformans [17]; Cryptococcus neoformans", "value": 4, "unit": "µg/mL"}, {"measurement": "MIC", "setting": "Cryptococcus neoformans [17]; Cryptococcus neoformans", "value": 0.25, "unit": "µg/mL"}, {"measurement": "MIC / MEC", "setting": "Cryptococcus neoformans [17]", "value": 0.25, "unit": "µg/mL"}]}]}
